In patent US20240197608A1, “ACETYL SH-HEXAPEPTIDE-5 AMIDE ACETATE FOR USE IN THE TREATMENT OF HAIR LOSS DISORDERS AND AS A HAIR CARE AGENT” (L[…], S.A., priority 2021, published 2024):

Legend:
Type in all cases: cell-based
[1] = tested on: Fibroblast Growth Factor-7 (FGF7) gene expression; experiment: FGF7 gene expression in Human Follicle Dermal Papilla Cells (RT-qPCR); conditions: HFDPC, 24 hours of incubation
Protocol: (§1) This assay determined the beneficial effect of the acetyl sh-hexapeptide-5 amide acetate in the reduction of the hair loss in an in vitro assay, using Dermal Papilla cells and analysed through gene expression analysis. In particular, this test determinate the effect of the acetyl sh-hexapeptide-5 amide acetate alone or in combination with tripeptide-10 citrulline after 24 hours of treatment of Human Follicle Dermal Papilla Cells (HFDPC), and through analysis of Fibroblast Growth Factor-7 (FGF7), Insulin-like Growth Factor-1 (IGF1), and Marker of Proliferation KI-67 (MKI67) gene expression, using Quantitative reverse transcription PCR (RT-qPCR) method.
(§2) Analytical equipment: Microscope, incubator, refrigerated centrifuge, statistical analysis software, micropipettes, pipettes, propipette, rack, quantifier Nano-Drop spectrophotometer, laminar flow hood, QuantStudio 5 (Applied Biosystem) Quantitative real-time PCR, vortex, Burker chamber, heating block, thermocycler, and consumables. […]
(§3) Methodology: Cell number and viability were determined using a Burker chamber and Trypan-Blue staining. […]
(§4) After 24 hours of incubation, the medium was removed, and cells were washed with PBS (phosphate buffered saline). […] 2 min (Ramp rate: 4.4° C./sec) 1 cycle PCR Analysis Mode: Quantification 95° C. […] All data were statistically analysed.

[2] = tested on: Marker of Proliferation KI-67 (MKI67) gene expression; experiment: MKI67 gene expression in Human Follicle Dermal Papilla Cells (RT-qPCR); conditions: sample at 5% in culture medium, HFDPC, 24 hours of incubation
Protocol: as §1, §2, §3, §4

[3] = tested on: Insulin-like Growth Factor-1 (IGF1) gene expression; experiment: IGF1 gene expression in Human Follicle Dermal Papilla Cells (RT-qPCR); conditions: HFDPC, 24 hours of incubation
Protocol: as §1, §2, §3, §4

acetyl sh-hexapeptide-5 amide acetate [sample 1]
Fibroblast Growth Factor-7 (FGF7) expression increase compared to the untreated control ([1]; sample at 1% in culture medium): 72.3±12.5% | Fibroblast Growth Factor-7 (FGF7) expression increase compared to the untreated control ([1]; sample at 5% in culture medium): 108.0±8.3% | MK167 gene expression increase compared to the untreated control [2]: 100.4±25.2% | IGF1 gene expression increase compared to the untreated control ([3]; sample at 1% in culture medium): 286.3±72.0% | IGF1 gene expression increase compared to the untreated control ([3]; sample at 5% in culture medium): 300.2±45.0%
